# Patent EP4722212A1, “NOVEL COMPOUND FOR INHIBITING PROTEIN KINASES AND PHARMACEUTICAL COMPOSITION COMPRISING SAME” (Magicbullettherapeutics Co., Ltd., priority 2023, dated 2024)
# Experiments:
# Assay in all cases: Kinase panel
# Format in all cases: biochemical
# MLCK2/MYLK2 = MLCK2/MYLK2 (Homo sapiens, UniProt Q9H1R3); conditions: MLCK2/MYLK2, 1 µM; read-out: residual enzyme activity
# Outline: (§1)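 Biochemical full-panel kinase assay with compounds tested at a single concentration of 1 µM. Values are residual enzyme activity. Kinases were flagged when residual activity was 40% or less, i.e. inhibition of 60% or more.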
# MRCKB/CDC42BPB = MRCKB/CDC42BPB (Homo sapiens, UniProt Q9Y5S2); conditions: read-out: residual enzyme activity
# Outline: as §1
# MAK = MAK (Homo sapiens, UniProt P20794); conditions: read-out: residual enzyme activity
# Outline: as §1
# ROCK1 = ROCK1 (Homo sapiens, UniProt Q13464); conditions: ROCK1, 1 µM; read-out: residual enzyme activity
# Outline: as §1
# DYRK2 = DYRK2 (Homo sapiens, UniProt Q92630); conditions: DYRK2, 1 µM; read-out: residual enzyme activity
# Outline: as §1
# PBK/TOPK = PBK/TOPK (Homo sapiens, UniProt Q96KB5); conditions: read-out: residual enzyme activity
# Outline: as §1
# MKK7 = MKK7 (Homo sapiens, UniProt O14733); conditions: MKK7, 1 µM; read-out: residual enzyme activity
# Outline: as §1
# HIPK2 = HIPK2 (Homo sapiens, UniProt Q9H2X6); conditions: HIPK2, 1 µM; read-out: residual enzyme activity
# Outline: as §1
# LCK2/ICK = LCK2/ICK (Homo sapiens, UniProt Q9UPZ9); conditions: read-out: residual enzyme activity
# Outline: as §1
# IRR/INSRR = IRR/INSRR (Homo sapiens, UniProt P14616); conditions: read-out: residual enzyme activity
# Outline: as §1
# PAK2 = PAK2 (Homo sapiens, UniProt Q13177); conditions: PAK2, 1 µM; read-out: residual enzyme activity
# Outline: as §1
# PKD2/PRKD2 = PKD2/PRKD2 (Homo sapiens, UniProt Q9BZL6); conditions: PKD2/PRKD2, 1 µM; read-out: residual enzyme activity
# Outline: as §1
# IKKE/IKBKE = IKKE/IKBKE (Homo sapiens, UniProt Q14164); conditions: read-out: residual enzyme activity
# Outline: as §1
# CDK5/P25 = CDK5/P25 (Homo sapiens, UniProt Q00535); conditions: CDK5/P25, 1 µM; read-out: residual enzyme activity
# Outline: as §1
# SGK3/SGKL = SGK3/SGKL (Homo sapiens, UniProt Q96BR1); conditions: read-out: residual enzyme activity
# Outline: as §1
# COT1/MAP3K8 = COT1/MAP3K8 (Homo sapiens, UniProt P41279); conditions: COT1/MAP3K8, 1 µM; read-out: residual enzyme activity
# Outline: as §1
# DRAK1/STK17A = DRAK1/STK17A (Homo sapiens, UniProt Q9UEE5); conditions: read-out: residual enzyme activity
# Outline: as §1
# CDK1/CYCLIN A = CDK1/CYCLIN A (Homo sapiens, UniProt P06493); conditions: read-out: residual enzyme activity
# Outline: as §1
# DMPK2 = DMPK2 (Homo sapiens, UniProt Q6DT37); conditions: DMPK2, 1 µM; read-out: residual enzyme activity
# Outline: as §1
# TSSK2 = TSSK2 (Homo sapiens, UniProt Q96PF2); conditions: TSSK2, 1 µM; read-out: residual enzyme activity
# Outline: as §1
# LKB1 = LKB1 (Homo sapiens, UniProt Q15831); conditions: LKB1, 1 µM; read-out: residual enzyme activity
# Outline: as §1
# EPHB3 = EPHB3 (Homo sapiens, UniProt P54753); conditions: EPHB3, 1 µM; read-out: residual enzyme activity
# Outline: as §1
# MLK1/MAP3K9 = MLK1/MAP3K9 (Homo sapiens, UniProt P80192); conditions: MLK1/MAP3K9, 1 µM; read-out: residual enzyme activity
# Outline: as §1
# MAPKAPK2 = MAPKAPK2 (Homo sapiens, UniProt P49137); conditions: MAPKAPK2, 1 µM; read-out: residual enzyme activity
# Outline: as §1
# LIMK1 = LIMK1 (Homo sapiens, UniProt P53667); conditions: LIMK1, 1 µM; read-out: residual enzyme activity
# Outline: as §1
# SRMS = SRMS (Homo sapiens, UniProt Q9H3Y6); conditions: read-out: residual enzyme activity
# Outline: as §1
# TRKC = TRKC (Homo sapiens, UniProt Q16288); conditions: read-out: residual enzyme activity
# Outline: as §1
# ASK1/MAP3K5 = ASK1/MAP3K5 (Homo sapiens, UniProt Q99683); conditions: ASK1/MAP3K5, 1 µM; read-out: residual enzyme activity
# Outline: as §1
# PDGFRA = PDGFRA (Homo sapiens, UniProt P16234); conditions: read-out: residual enzyme activity
# Outline: as §1
# LRRK2 = LRRK2 (Homo sapiens, UniProt Q5S007); conditions: LRRK2, 1 µM; read-out: residual enzyme activity
# Outline: as §1
# YES/YES1 = YES/YES1 (Homo sapiens, UniProt P07947); conditions: YES/YES1, 1 µM; read-out: residual enzyme activity
# Outline: as §1
# TLK1 = TLK1 (Homo sapiens, UniProt Q9UKI8); conditions: TLK1, 1 µM; read-out: residual enzyme activity
# Outline: as §1
# DDR2 = DDR2 (Homo sapiens, UniProt Q16832); conditions: DDR2, 1 µM; read-out: residual enzyme activity
# Outline: as §1
# PAK1 = PAK1 (Homo sapiens, UniProt Q13153); conditions: PAK1, 1 µM; read-out: residual enzyme activity
# Outline: as §1
# Sequence of MAK (P20794 whole entry): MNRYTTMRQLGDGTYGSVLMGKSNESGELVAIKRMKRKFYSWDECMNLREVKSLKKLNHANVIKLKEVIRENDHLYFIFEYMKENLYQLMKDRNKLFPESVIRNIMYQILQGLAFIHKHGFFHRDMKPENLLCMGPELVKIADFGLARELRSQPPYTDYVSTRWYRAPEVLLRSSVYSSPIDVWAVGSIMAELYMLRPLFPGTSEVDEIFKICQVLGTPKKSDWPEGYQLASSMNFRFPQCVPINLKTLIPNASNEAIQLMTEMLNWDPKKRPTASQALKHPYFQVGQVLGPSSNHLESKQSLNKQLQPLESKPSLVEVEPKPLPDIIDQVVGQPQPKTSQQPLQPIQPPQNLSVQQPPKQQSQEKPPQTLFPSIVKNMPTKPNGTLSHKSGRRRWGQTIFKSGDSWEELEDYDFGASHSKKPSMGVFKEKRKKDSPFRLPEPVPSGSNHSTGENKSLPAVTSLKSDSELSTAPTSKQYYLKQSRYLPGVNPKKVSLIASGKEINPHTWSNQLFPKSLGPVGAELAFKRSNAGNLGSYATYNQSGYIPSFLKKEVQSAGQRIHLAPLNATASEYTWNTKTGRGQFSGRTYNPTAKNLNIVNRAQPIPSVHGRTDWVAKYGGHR
# Sequence of IRR/INSRR (P14616 27-1297): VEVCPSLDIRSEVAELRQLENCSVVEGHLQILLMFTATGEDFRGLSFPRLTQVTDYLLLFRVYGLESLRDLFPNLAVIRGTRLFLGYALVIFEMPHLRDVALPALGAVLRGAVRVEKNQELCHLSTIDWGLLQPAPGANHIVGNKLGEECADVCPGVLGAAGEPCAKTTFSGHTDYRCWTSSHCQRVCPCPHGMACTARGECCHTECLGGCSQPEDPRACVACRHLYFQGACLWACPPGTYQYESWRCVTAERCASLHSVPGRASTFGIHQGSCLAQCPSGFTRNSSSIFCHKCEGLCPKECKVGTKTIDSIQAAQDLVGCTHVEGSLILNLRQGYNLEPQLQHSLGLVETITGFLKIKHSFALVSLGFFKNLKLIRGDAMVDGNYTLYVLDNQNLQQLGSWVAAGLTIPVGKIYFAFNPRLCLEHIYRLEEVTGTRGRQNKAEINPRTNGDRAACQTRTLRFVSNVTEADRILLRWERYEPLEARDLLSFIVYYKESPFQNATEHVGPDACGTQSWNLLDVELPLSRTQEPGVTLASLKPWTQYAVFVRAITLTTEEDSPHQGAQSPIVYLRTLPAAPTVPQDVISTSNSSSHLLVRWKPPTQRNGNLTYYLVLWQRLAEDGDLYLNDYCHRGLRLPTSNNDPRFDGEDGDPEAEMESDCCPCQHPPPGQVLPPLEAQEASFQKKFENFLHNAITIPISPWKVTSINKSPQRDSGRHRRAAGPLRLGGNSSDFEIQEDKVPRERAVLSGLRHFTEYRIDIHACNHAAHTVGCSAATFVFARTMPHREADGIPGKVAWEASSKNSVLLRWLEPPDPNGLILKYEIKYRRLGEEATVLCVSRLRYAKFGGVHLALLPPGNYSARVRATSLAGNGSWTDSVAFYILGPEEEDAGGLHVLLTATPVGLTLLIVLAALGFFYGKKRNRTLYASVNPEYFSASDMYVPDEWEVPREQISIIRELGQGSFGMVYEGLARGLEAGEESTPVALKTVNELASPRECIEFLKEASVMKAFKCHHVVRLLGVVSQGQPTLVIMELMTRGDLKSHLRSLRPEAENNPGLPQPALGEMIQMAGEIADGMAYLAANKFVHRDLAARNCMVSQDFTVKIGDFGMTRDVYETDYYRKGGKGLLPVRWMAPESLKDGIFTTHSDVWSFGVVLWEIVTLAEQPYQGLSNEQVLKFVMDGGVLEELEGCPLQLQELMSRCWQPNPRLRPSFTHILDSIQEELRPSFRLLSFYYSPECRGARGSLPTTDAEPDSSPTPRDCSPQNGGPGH
# Sequence of CDK1/CYCLIN A (P06493 whole entry, species assumed): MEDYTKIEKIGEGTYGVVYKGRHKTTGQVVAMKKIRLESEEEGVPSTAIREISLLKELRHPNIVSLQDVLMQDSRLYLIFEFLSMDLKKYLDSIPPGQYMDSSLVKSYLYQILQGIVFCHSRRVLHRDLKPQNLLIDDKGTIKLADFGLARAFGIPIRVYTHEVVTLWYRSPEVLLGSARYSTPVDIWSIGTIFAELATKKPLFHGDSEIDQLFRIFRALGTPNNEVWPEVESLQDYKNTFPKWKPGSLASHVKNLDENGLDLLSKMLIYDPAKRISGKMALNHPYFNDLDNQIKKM
# Sequence of CDK1/CYCLIN A (P20248 whole entry partner, species assumed): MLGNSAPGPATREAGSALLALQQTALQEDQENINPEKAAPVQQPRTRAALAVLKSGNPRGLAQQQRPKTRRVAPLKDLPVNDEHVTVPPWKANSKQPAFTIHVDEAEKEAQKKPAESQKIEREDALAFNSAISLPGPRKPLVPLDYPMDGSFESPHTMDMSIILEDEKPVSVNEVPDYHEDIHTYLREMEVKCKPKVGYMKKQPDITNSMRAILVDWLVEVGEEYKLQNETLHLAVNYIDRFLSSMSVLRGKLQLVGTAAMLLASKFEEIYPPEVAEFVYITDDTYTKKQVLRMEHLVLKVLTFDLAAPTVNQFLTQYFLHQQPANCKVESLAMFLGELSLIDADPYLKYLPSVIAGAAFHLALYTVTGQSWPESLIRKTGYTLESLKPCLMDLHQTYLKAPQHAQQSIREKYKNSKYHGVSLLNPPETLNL
# Sequence of MAPKAPK2 (P49137 whole entry, species assumed): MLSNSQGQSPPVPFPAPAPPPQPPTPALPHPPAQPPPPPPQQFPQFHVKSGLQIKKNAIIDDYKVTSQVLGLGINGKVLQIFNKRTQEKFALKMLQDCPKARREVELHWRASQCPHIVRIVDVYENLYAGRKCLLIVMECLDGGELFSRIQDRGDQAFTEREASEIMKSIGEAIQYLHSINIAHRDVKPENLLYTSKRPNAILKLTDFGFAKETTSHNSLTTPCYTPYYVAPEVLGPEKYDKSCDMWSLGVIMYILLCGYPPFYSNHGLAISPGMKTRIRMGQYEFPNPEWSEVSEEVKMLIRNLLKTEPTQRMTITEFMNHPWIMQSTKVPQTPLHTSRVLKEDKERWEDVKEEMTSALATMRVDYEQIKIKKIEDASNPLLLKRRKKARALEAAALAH
# Sequence of DDR2 (Q16832 22-855, species assumed): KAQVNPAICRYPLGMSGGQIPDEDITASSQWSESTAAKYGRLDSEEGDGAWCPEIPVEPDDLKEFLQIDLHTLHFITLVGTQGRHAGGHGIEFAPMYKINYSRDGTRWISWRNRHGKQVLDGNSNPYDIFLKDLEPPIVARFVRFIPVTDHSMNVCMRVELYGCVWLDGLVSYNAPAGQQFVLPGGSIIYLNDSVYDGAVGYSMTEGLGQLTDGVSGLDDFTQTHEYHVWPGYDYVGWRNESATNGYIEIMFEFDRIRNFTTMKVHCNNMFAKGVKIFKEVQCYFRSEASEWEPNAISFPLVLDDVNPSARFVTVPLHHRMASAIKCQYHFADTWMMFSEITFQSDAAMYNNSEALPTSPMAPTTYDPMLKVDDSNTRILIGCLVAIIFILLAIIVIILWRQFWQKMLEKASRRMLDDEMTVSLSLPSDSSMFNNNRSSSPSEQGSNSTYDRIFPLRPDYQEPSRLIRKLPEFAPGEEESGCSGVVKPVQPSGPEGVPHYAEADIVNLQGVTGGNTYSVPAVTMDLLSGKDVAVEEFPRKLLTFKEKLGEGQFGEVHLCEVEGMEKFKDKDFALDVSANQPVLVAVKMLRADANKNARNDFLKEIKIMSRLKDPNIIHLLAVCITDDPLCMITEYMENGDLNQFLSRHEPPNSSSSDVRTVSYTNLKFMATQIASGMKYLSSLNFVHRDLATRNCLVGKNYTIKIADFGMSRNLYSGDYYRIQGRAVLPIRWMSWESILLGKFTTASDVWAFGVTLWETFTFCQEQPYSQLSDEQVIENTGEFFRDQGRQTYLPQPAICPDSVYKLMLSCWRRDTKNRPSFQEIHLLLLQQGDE
# Sequence of DYRK2 (Q92630 whole entry, species assumed): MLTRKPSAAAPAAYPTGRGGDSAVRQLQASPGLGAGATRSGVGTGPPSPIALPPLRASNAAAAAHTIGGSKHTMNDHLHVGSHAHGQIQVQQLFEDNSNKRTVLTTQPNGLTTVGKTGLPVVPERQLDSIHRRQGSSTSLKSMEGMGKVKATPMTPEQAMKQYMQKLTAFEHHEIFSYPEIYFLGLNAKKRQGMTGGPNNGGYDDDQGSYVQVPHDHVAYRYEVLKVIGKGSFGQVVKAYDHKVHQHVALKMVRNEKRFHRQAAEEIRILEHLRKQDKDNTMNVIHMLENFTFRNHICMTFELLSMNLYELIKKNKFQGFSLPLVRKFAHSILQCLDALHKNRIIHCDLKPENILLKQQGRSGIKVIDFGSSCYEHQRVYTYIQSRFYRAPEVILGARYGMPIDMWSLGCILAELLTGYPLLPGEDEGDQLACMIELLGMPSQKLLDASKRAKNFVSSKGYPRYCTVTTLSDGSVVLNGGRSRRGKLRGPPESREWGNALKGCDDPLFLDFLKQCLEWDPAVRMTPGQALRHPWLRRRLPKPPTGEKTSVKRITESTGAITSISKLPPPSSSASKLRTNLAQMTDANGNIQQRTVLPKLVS
# Sequence of SGK3/SGKL (Q96BR1 whole entry): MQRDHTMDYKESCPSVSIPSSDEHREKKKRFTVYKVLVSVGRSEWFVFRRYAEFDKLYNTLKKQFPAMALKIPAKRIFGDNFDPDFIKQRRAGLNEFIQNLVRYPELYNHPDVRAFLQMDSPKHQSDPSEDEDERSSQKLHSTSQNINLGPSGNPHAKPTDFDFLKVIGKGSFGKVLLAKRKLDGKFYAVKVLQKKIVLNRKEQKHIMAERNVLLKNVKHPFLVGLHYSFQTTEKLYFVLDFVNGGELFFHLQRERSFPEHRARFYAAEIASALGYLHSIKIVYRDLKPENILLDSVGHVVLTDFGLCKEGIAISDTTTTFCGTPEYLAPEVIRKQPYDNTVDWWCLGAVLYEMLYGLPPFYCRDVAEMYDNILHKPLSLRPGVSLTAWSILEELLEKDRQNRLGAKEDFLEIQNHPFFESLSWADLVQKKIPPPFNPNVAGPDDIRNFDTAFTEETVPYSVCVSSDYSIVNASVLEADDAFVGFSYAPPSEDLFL
Compound,remaining activity at 1 µM (MLCK2/MYLK2) [%],remaining activity at 1 µM (MRCKB/CDC42BPB) [%],remaining activity at 1 µM (MAK) [%],remaining activity at 1 µM (ROCK1) [%],remaining activity at 1 µM (DYRK2) [%],remaining activity at 1 µM (PBK/TOPK) [%],remaining activity at 1 µM (MKK7) [%],remaining activity at 1 µM (HIPK2) [%],remaining activity at 1 µM (LCK2/ICK) [%],remaining activity at 1 µM (IRR/INSRR) [%],remaining activity at 1 µM (PAK2) [%],remaining activity at 1 µM (PKD2/PRKD2) [%],remaining activity at 1 µM (IKKE/IKBKE) [%],remaining activity at 1 µM (CDK5/P25) [%],remaining activity at 1 µM (SGK3/SGKL) [%],remaining activity at 1 µM (COT1/MAP3K8) [%],remaining activity at 1 µM (DRAK1/STK17A) [%],remaining activity at 1 µM (CDK1/CYCLIN A) [%],remaining activity at 1 µM (DMPK2) [%],remaining activity at 1 µM (TSSK2) [%],other results
"Cc1ccc(Nc2ncc3c(n2)C2(CC2)C(=O)N(c2cc(NC(=O)c4cccc(C(F)(F)F)c4)ccc2C)C3)cn1 [Compound 51, N-(4-methyl-3-(2'-((6-methylpyridin-3-yl)amino)-7'-oxo-5'H-spiro[cyclopropane-1,8'-pyrido[4,3-d]pyrimidine]-6'(7'H)-yl)phenyl)-3-(trifluoromethyl)benzamide]",≤ 40,> 40,> 40,> 40,> 40,> 40,> 40,> 40,> 40,> 40,> 40,> 40,> 40,> 40,> 40,> 40,> 40,> 40,> 40,> 40,remaining activity at 1 µM (LKB1): > 40%; remaining activity at 1 µM (EPHB3): ≤ 40%; remaining activity at 1 µM (MLK1/MAP3K9): ≤ 40%; remaining activity at 1 µM (MAPKAPK2): > 40%; remaining activity at 1 µM (LIMK1): ≤ 40%; remaining activity at 1 µM (SRMS): ≤ 40%; remaining activity at 1 µM (TRKC): ≤ 40%; remaining activity at 1 µM (ASK1/MAP3K5): > 40%; remaining activity at 1 µM (PDGFRA): ≤ 40%; remaining activity at 1 µM (LRRK2): ≤ 40%; remaining activity at 1 µM (YES/YES1): ≤ 40%; remaining activity at 1 µM (TLK1): > 40%; remaining activity at 1 µM (DDR2): ≤ 40%; remaining activity at 1 µM (PAK1): > 40%
"Cc1cn(-c2cc(C(=O)Nc3ccc(C)c(N4Cc5cnc(NC6CC6)nc5C5(CC5)C4=O)c3)cc(C(F)(F)F)c2)cn1 [Compound 8, N-(3-(2'-(cyclopropylamino)-7'-oxo-5'H-spiro[cyclopropane-1,8'-pyrido[4,3-d]pyrimidine]-6'(7'H)-yl)-4-methylphenyl)-3-(4-methyl-1H-imidazol-1-yl)-5-(trifluoromethyl)benzamide]",≤ 40,> 40,> 40,> 40,> 40,> 40,> 40,> 40,> 40,> 40,> 40,> 40,> 40,> 40,> 40,> 40,> 40,> 40,> 40,> 40,remaining activity at 1 µM (LKB1): > 40%; remaining activity at 1 µM (EPHB3): ≤ 40%; remaining activity at 1 µM (MLK1/MAP3K9): > 40%; remaining activity at 1 µM (MAPKAPK2): > 40%; remaining activity at 1 µM (LIMK1): ≤ 40%; remaining activity at 1 µM (SRMS): ≤ 40%; remaining activity at 1 µM (TRKC): ≤ 40%; remaining activity at 1 µM (ASK1/MAP3K5): > 40%; remaining activity at 1 µM (PDGFRA): ≤ 40%; remaining activity at 1 µM (LRRK2): > 40%; remaining activity at 1 µM (YES/YES1): ≤ 40%; remaining activity at 1 µM (TLK1): > 40%; remaining activity at 1 µM (DDR2): ≤ 40%; remaining activity at 1 µM (PAK1): > 40%
